pEC50, pIC50: −log10 of the molar value.
Tests used:
[1] = target: T1, Hsp90α (Homo sapiens, UniProt P07900); test: Human Hsp90α fluorescence polarization competition assay with Example 37 tracer; details: displacement of 50 nM example 37 tracer, 125 nM Hsp90α, 1 h 30 min, 20° C.; read-out: Relative binding affinity values (IC50) obtained from FP measurements
T1 construct: purchased Stressgen Bioreagents SPP-776
Description: The aim of this study was to determine the binding ability of compounds of the invention to the N-terminal ATP binding site of Hsp90. For that purpose competition assays with fluorescently labeled Hsp90 binders were used (compounds of examples 37 and 41).
Compounds of examples 37 and 41 are structurally based on 8-(6-Iodo-benzo[1,3]dioxol-5-ylsulfanyl)-9-(3-isopropylamino-propyl)-9H-purin-6-ylamine, a known binder of the N-terminal ATP binding site of Hsp90 which has the ability of inhibiting the Hsp90 function (cf. Chiosis G. et al. “Identification of Potent Water Soluble Purine-Scaffold Inhibitors of the Heat Shock Protein 90”, J. Med. Chem., 2006, vol. 49, no. 1, p. 381). Compounds 37 and 41 keep the essential structural features of the known binder (which means that said compounds are able to bind to the ATP binding site) and incorporate a fluorescent probe which allows the detection of the binding by fluorescence polarization.
When the binders of examples 37 and 41 are used in the competition assay, in a first step said binders are allowed to interact with the N-terminal ATP binding site of Hsp90. Then the compounds of the invention are added and it is determined if they are able to bind to the N-terminal ATP binding site (which will imply that the binders of examples 37 and 41 have been replaced from the N-terminal ATP binding site). If after performing the assay, the binding between the tested compound of the invention and the Hsp90 is observed, this will be indicative that the compound of the invention has been bound to the ATP binding site of Hsp90 and, therefore, can inhibit the Hsp90.
Once compounds of examples 37 and 41 were synthesized as reported above, they were dissolved at 238 μM and 1 mM in DMSO respectively (Sigma-Aldrich, cat. No. 154938). Hsp90α was purchased from Stressgen Bioreagents (cat. No. SPP-776; Victoria, Canada). The assay buffer contained 100 mM Tris·HCl, pH 7.4, 20 mM KCl, 6 mM MgCl2. Before each use 5 μg/mL bovine serum albumin (BSA, Pierce, Rockford (Ill.), cat No. 23209), 0.25 mM TCEP (Sigma, cat No. 64706) and 0.01% NP40 (Nonidet P40 Substitute, Fluka, cat No. 74385) were freshly added (cf. Howes et al., “A fluorescence polarization assay for inhibitors of Hsp90”, Analytical Biochemistry, 2006, vol. 350, p. 202-213; Kim et al., “Development of a fluorescence polarization assay for the molecular chaperone Hsp90”, J. Biomol. Screen., 2004, vol. 9 (5)).
Fluorescence polarization measurements were performed on an Infinite F200 (Tecan, Austria). Measurements were taken in black 96-well microplates (Corning Costar No. 3650) in which both the excitation and the emission occurred from the top of the wells. In the Infinite F200, a xenon arc lamp provides excitation light that passes through a 485 nm (20-nm bandwidth) excitation filter and then a polarizer filter. A beam splitter filter directs the polarized excitation light into the well, and emitted fluorescence transmits back through the same beam-splitter filter, through a polarizer filter, and then through a 535 nm (25-nm bandwidth) emission filter for detection (Kim et al., supra). The read time per well was 20 μs, and the number of reads per well was 25.
Compounds were assayed over a three-fold dilution series in a 96-well plate format to determine IC50 values. The serial dilution was performed in a separate 96-well plate (Thermowell 96 well PCR plate, Non-Treated Polypropylene, Corning Costar No. 6551) at 50 times final assay concentration in DMSO. (Howes et al, supra). 2 μl of compound was transferred to a black 96-well plate (Corning Costar No. 3650) and 98 μL of reaction solution (100 mM Tris·HCl, pH 7.4, 20 mM KCl, 6 mM MgCl2, 5 μg/mL bovine serum albumin (BSA), 0.25 mM TCEP, 0.01% NP40, 50 nM the compound of example 37, 125 nM Hsp90α) was added per well. The plate was allowed to equilibrate for 1 h 30 min on a slow moving shaker at 20° C. in the dark. […]

[2] = test system: HCT-116; test: Cell growth inhibition by AlamarBlue method, HCT-116; type: cell-based; details: Homo sapiens; HCT-116, 72 hours; read-out: Cell growth inhibition values (EC50) obtained with AlamarBlue method
Procedure: (§1) The human colon cancer cell line HCT-116 and the human breast cell lines MCF-7 and SKBr3 were from the American Type Culture Collection (ATCC; CCL-247, HTB-22 and HTB-30, respectively).
(§2) The HCT-116 and SKBr3 cell lines were maintained in DMEM GlutaMAX (Invitrogen) supplemented with 10% fetal calf serum and the MCF-7 cell line was maintained in RPMI1640 GlutaMAX (Invitrogen) containing 1 mM sodium pyruvate and 10% fetal calf serum. Cells were grown in a humidified incubator at 37° C. in 5% CO2
(§3) Cells were plated in 96-well plates (Costar, 3596) at a density of 6000 cells/well in 50 μL medium 24 h before addition of the compounds. Compounds were then added in 8 concentrations, each in triplicate (dilution series of 1 to 3). To do so, a compound-dilution plate at 200× the screening concentrations was prepared in DMSO 100% (Sigma, 154938). Then, 1.7 μL of the 200× diluted compounds were transferred to a new plate and 170 μL of media were added and mixed with the pipette (plate at 2×). Columns 11 and 12 of this plate (controls) were filled with 1% DMSO in cell media (i.e. 1.7 μL DMSO and 170 μL cell media). Finally, 50 μL of this intermediate plate at 2× were transferred to the plate containing the seeded cells and slowly shaken manually. Cells were grown as described above. AlamarBlue viability assay (Biosource, Invitrogen, DAL1100) was performed 72 hours later following manufacturer's protocol. In brief, AlamarBlue diluted in media was added to cells to have a 5% solution (a 2× solution was prepared in media and 100 μL of this solution were transferred to each well, i.e. final volume of 200 μL). Cells were incubated at 37° C., 3 hours and at room temperature for an additional 30 min. Cells with no compound and, cells with no compound and lysed with triton X-100 (30 μL/well added 10 min before treatment with AlamarBlue) were used as controls (6 replicates of each). Fluorescence was monitored at 530 nm excitation and 590 nm emission wavelengths. Results were quantified using ELx800 Universal Microplate Reader (Bio-Tek Instruments, Inc.). EC50 were calculated as the dose of compound required to inhibit cell growth by 50%.

[3] = test system: SKBr3; test: Cell growth inhibition by AlamarBlue method, SKBr3; type: cell-based; details: Homo sapiens, SK-BR-3; SKBr3, 72 hours; read-out: Cell growth inhibition values (EC50) obtained with AlamarBlue method
Procedure: as §1, §2, §3

Row | Structure (SMILES) | pIC50 [1] | pEC50 [2] | pEC50 [3]
1 | CCCCn1c(Sc2cc(OC)ccc2OC)nc(C(N)=O)c1N [Example 27, 5-amino-1-butyl-2-(2,5-dimethoxy-phenylsulfanyl)-1H-imidazole-4-carboxamide] | 3.70 |  | 
2 | Cn1c(Sc2nc3cccc(Cl)c3s2)nc(C(N)=O)c1N [Example 51, 5-amino-2-(7-chloro-benzothiazol-2-ylsulfanyl)-1-methyl-1H-imidazole-4-carboxamide] | 5.51 |  | 
3 | CC(=O)Nc1c(C(N)=O)nc(Sc2cc3c(cc2I)OCO3)n1CCCNC(C)C [Example 69, 5-acetylamino-2-(6-iodo-benzo[1,3]dioxol-5-ylsulfanyl)-1-(3-isopropylamino-propyl)-1H-imidazole-4-carboxamide] | 3.70 |  | 
4 | Cn1c(Sc2cc3c(cc2Br)OCO3)nc(C(N)=O)c1N [Example 73, 5-amino-2-[(6-bromo-1,3-benzodioxol-5-yl)thio]-1-methyl-1H-imidazole-4-carboxamide] | 4.82 | 4.11 | 
5 | CC(C)c1cc2c(cc1Sc1nc(C(N)=O)c(N)n1C)OCO2 [Example 75, 5-amino-2-[(6-isopropyl-1,3-benzodioxol-5-yl)thio]-1-methyl-1H-imidazole-4-carboxamide] | 4.25 |  | 
6 | C=Cc1cc2c(cc1Sc1nc(C(N)=O)c(N)n1C)OCO2 [Example 77, 5-amino-1-methyl-2-[(6-vinyl-1,3-benzodioxol-5-yl)thio]-1H-imidazole-4-carboxamide] | 5.35 | 4.41 | 4.41
7 | CCOc1cc2c(cc1Sc1nc(C(N)=O)c(N)n1C)OCO2 [Example 79, 5-amino-2-[(6-ethoxy-1,3-benzodioxol-5-yl)thio]-1-methyl-1H-imidazole-4-carboxamide] | 4.90 | 4.04 | 
8 | CSc1cc2c(cc1Sc1nc(C(N)=O)c(N)n1C)OCO2 [Example 81, 5-amino-1-methyl-2-{[6-(methylthio)-1,3-benzodioxol-5-yl]thio}-1H-imidazole-4-carboxamide] | 5.40 |  | 4.64
9 | Cn1c(Sc2cc3c(cc2S(C)(=O)=O)OCO3)nc(C(N)=O)c1N [Example 83, 5-amino-1-methyl-2-{[6-(methylsulfonyl)-1,3-benzodioxol-5-yl]thio}-1H-imidazole-4-carboxamide] | 5.10 | 4.58 | 
10 | Cn1c(Sc2cc3c(cc2I)OCO3)nc(C(N)=O)c1N [Example 85, 5-amino-2-[(6-iodo-1,3-benzodioxol-5-yl)thio]-1-methyl-1H-imidazole-4-carboxamide] | 5.28 |  | 
11 | NC(=O)c1nc(Sc2cc3c(cc2Br)OCO3)n(CCCN2CCOCC2)c1N [Example 86, 5-amino-2-[(6-bromo-1,3-benzodioxol-5-yl)thio]-1-(3-morpholin-4-ylpropyl)-1H-imidazole-4-carboxamide] | 5.47 | 4.04 | 
12 | NC(=O)c1nc(Sc2cc3c(cc2I)OCO3)n(CCCN2CCOCC2)c1N [Example 87, 5-amino-2-[(6-iodo-1,3-benzodioxol-5-yl)thio]-1-(3-morpholin-4-ylpropyl)-1H-imidazole-4-carboxamide] | 6.05 | 6.00 | 5.34
13 | CCN(CC)CCCn1c(Sc2cc3c(cc2I)OCO3)nc(C(N)=O)c1N [Example 88, 5-Amino-2-[(6-iodo-1,3-benzodioxol-5-yl)thio]-1-[3-(diethylamino)propyl]-1H-imidazole-4-carboxamide] | 6.22 |  | 5.96
14 | CCN(CC)CCCn1c(Sc2cc3c(cc2Br)OCO3)nc(C(N)=O)c1N [Example 89, 5-amino-2-[(6-bromo-1,3-benzodioxol-5-yl)thio]-1-[3-(diethylamino)propyl]-1H-imidazole-4-carboxamide] | 5.32 |  | 4.74
15 | Cc1c(N)c(C(N)=O)nn1Cc1cc2c(cc1Br)OCO2 [Example 92, 4-amino-1-(6-bromo-benzol[1,3]dioxol-5-ylmethyl)-5-methyl-1H-pyrazole-3-carboxamide] |  | 4.68 | 
16 | CC(=O)Nc1c(C(N)=O)nn(Cc2cc3c(cc2Br)OCO3)c1C [Example 93, 4-(acetylamino)-1-[(6-bromo-1,3-benzodioxol-5-yl)methyl]-5-methyl-1H-pyrazole-3-carboxamide] |  | 4.52 | 
17 | CCC(=O)Nc1c(C(N)=O)nn(Cc2cc3c(cc2Br)OCO3)c1C [Example 94, 1-[(6-bromo-1,3-benzodioxol-5-yl)methyl]-5-methyl-4-(propionylamino)-1H-pyrazole-3-carboxamide] |  | 5.68 | 
18 | Cc1c(NS(C)(=O)=O)c(C(N)=O)nn1Cc1cc2c(cc1Br)OCO2 [Example 95, 1-[(6-bromo-1,3-benzodioxol-5-yl)methyl]-5-methyl-4-[(methylsulfonyl)amino]-1H-pyrazole-3-carboxamide] |  | 4.08 | 
19 | Cn1c(Sc2cc3c(cc2Br)OCC3)nc(C(N)=O)c1N [Example 97, 5-amino-2-[(6-bromo-2,3-dihydro-1-benzofuran-5-yl)thio]-1-methyl-1H-imidazole-4-carboxamide] | 5.30 | 4.15 | 4.39
20 | CCN(CC)CCCn1c(Sc2cc3c(cc2SC)OCO3)nc(C(N)=O)c1N [Example 98, 5-amino-2-{[6-(methylthio)-1,3-benzodioxol-5-yl]thio}-1-[3-(diethylamino)propyl]-1H-imidazole-4-carboxamide] | 5.70 | 5.22 | 5.72
21 | CCSc1cc2c(cc1Sc1nc(C(N)=O)c(N)n1CCCN(CC)CC)OCO2 [Example 100, 5-amino-2-{[6-(ethylthio)-1,3-benzodioxol-5-yl]thio}-1-[3-(diethylamino)propyl]-1H-imidazole-4-carboxamide] | 5.84 | 5.92 | 
